This passage reports Ki, EC50 and inhibition results from ChEMBL document CHEMBL1126372, “Synthesis of L-chiro-inositol 1,4,6-trisphosphorothioate, a potent and selective inhibitor of myo-inositol 1,4,5-trisphosphate 5-phosphatase” (Bioorg Med Chem Lett, 1992).

By Ki is commonly meant the dissociation constant of the complex between target and ligand, obtained from inhibition or displacement. Low readings indicate higher affinity, high ones lower affinity. Usually EC50 stands for the midpoint of the concentration-response curve. Low readings indicate higher potency in that assay, high ones lower potency in that assay.

Each structure is given as a SMILES string. Activity calls are given as the source filed them.

The nature of the first assay: Tested for the ability to inhibit dephosphorylation of [3H]Ins(1,4,5)P3 of human erythrocyte membrane Ins(1,4,5)P3 5- phosphatase. Type of assay: functional.
`OC1C(O)C(OP(O)(O)=S)C(OP(O)(O)=S)C(O)C1OP(O)(O)=S` (stereo in doubt): the Ki stood at 1.7 µM. Still for that read-out and setting: the result for `O=P(O)(O)O[C@@H]1[C@H](O)[C@H](O)[C@@H](OP(=O)(O)O)[C@H](OP(=O)(O)O)[C@H]1O` [INS(1,4,5)P3] reads 44 µM; that for `O=P(O)(O)OC1C(O)C(O)C(OP(=O)(O)O)C(OP(O)(O)=S)C1O` (stereo in doubt; 4), 978 µM; that for `OC1C(O)C(OP(O)(O)=S)C(OP(O)(O)=S)C(O)C1OP(O)(O)=S` (stereo in doubt; 2), 350 µM. In turn, `OC1C(O)C(OP(O)(O)=S)C(OP(O)(O)=S)C(O)C1OP(O)(O)=S` (stereo in doubt; 8) [listing 1 of 2 here] showed an inhibition constant Ki of 0.3 µM. On the same count and under the same terms, the result for `O=P(O)(O)OC1C(O)C(O)C(OP(=O)(O)O)C(OP(O)(O)=S)C1O` (stereo in doubt) reads 6.8 µM.

A further assay can be described thus: Effective concentration required to mobilize [Ca2+] from intracellular stores using electrically permeabilised human neuroblastoma cells. The class given is functional, cell-based.
The molecule `O=P(O)(O)O[C@@H]1[C@H](O)[C@H](O)[C@@H](OP(=O)(O)O)[C@H](OP(=O)(O)O)[C@H]1O` [INS(1,4,5)P3] returned an EC50 of 0.12 µM.

Another assay in a line: Inhibition of [3H]Ins(1,4,5)P3 phosphorylation by crude rat brain Ins(1,4,5)P3 3-kinase at 250 uM (Inactive). The class given is functional.
Take `OC1C(O)C(OP(O)(O)=S)C(OP(O)(O)=S)C(O)C1OP(O)(O)=S` (stereo in doubt; 8) [listing 2 of 2 here]: the inhibition result is “inactive”. The same measure, in the same setting: to `O=P(O)(O)O[C@@H]1[C@H](O)[C@H](O)[C@@H](OP(=O)(O)O)[C@H](OP(=O)(O)O)[C@H]1O` [INS(1,4,5)P3] belongs “inactive”.
